This is an account of results in patent publication US9273040B2 (Merck Sharp & Dohme Corp., priority 2011, dated 2016).

SMILES strings stand for the structures.

The target in experiment [1] is T1, human Nav1.7 channels stably expressed in HEK 293 cells (Homo sapiens, UniProt Q15858).
T1 construct: expressed in transfected cells
The experiment in a line: PatchXpress 7000 automated patch-clamp, sodium current. Particulars: 22° C., read-out: potency for the Nav 1.7 sodium ion channel (as measured by PatchXpress). The experiment is classed as cell-based. The text has this:
(§1) To measure state and use-dependent sodium channel inhibition, test compounds were further characterized in an automated PatchXpress® assay (Molecular Devices). Two voltage-clamp protocols were used. 1) Use-dependent protocol: Cells were held at a membrane potential 20 mV negative to the potential at which ˜50% of the channels are inactivated (V0.5 inact). A train of 30 ms depolarizations to −20 mV was applied to the cells expressing Nav1.7 at a frequency of 10 Hz. […] Data was collected in the absence and presence of drug, and after drug washout. 2) A double-pulse protocol was used to measure inactivated state block. Cells were held at a potential 20 mV negative to V0.5 inact. A 8000 ms pre-pulse 7 mV positive to V0.5 inact was given followed by a hyperpolarizing 2 ms pulse to −120 mV and a 20 ms test pulse to −20 mV. Protocol was applied to cells in the absence, presence of compound and after washout. The temperature of PatchXpress instruments was maintained at 22° C. The following recording solutions were used. Internal solution (mM): 30 CsCl, 5 HEPES, 10 EGTA, 120 CsF, 5 NaF, 2MgCl2, pH=7.3 with CsOH, 324 mosmo. External solution (mM): 120 NMDG, 40 NaCl, 1 KCl, 0.5 MgCl2, 5 HEPES, 2.7 CaCl2, pH=7.5 with NMDG-OH.
(§2) For all electrophysiology experiments, offline analysis was used to correct for current rundown and to determine percent inhibition as a function of drug concentration. IC50 values were determined by fitting to the Hill equation.

For experiment [2], the target named is T2, human Nav1.5 channels stably expressed in HEK 293 cells (Homo sapiens, UniProt Q14524).
T2 construct: expressed in transfected cells
T2 sequence (Q14524 whole entry): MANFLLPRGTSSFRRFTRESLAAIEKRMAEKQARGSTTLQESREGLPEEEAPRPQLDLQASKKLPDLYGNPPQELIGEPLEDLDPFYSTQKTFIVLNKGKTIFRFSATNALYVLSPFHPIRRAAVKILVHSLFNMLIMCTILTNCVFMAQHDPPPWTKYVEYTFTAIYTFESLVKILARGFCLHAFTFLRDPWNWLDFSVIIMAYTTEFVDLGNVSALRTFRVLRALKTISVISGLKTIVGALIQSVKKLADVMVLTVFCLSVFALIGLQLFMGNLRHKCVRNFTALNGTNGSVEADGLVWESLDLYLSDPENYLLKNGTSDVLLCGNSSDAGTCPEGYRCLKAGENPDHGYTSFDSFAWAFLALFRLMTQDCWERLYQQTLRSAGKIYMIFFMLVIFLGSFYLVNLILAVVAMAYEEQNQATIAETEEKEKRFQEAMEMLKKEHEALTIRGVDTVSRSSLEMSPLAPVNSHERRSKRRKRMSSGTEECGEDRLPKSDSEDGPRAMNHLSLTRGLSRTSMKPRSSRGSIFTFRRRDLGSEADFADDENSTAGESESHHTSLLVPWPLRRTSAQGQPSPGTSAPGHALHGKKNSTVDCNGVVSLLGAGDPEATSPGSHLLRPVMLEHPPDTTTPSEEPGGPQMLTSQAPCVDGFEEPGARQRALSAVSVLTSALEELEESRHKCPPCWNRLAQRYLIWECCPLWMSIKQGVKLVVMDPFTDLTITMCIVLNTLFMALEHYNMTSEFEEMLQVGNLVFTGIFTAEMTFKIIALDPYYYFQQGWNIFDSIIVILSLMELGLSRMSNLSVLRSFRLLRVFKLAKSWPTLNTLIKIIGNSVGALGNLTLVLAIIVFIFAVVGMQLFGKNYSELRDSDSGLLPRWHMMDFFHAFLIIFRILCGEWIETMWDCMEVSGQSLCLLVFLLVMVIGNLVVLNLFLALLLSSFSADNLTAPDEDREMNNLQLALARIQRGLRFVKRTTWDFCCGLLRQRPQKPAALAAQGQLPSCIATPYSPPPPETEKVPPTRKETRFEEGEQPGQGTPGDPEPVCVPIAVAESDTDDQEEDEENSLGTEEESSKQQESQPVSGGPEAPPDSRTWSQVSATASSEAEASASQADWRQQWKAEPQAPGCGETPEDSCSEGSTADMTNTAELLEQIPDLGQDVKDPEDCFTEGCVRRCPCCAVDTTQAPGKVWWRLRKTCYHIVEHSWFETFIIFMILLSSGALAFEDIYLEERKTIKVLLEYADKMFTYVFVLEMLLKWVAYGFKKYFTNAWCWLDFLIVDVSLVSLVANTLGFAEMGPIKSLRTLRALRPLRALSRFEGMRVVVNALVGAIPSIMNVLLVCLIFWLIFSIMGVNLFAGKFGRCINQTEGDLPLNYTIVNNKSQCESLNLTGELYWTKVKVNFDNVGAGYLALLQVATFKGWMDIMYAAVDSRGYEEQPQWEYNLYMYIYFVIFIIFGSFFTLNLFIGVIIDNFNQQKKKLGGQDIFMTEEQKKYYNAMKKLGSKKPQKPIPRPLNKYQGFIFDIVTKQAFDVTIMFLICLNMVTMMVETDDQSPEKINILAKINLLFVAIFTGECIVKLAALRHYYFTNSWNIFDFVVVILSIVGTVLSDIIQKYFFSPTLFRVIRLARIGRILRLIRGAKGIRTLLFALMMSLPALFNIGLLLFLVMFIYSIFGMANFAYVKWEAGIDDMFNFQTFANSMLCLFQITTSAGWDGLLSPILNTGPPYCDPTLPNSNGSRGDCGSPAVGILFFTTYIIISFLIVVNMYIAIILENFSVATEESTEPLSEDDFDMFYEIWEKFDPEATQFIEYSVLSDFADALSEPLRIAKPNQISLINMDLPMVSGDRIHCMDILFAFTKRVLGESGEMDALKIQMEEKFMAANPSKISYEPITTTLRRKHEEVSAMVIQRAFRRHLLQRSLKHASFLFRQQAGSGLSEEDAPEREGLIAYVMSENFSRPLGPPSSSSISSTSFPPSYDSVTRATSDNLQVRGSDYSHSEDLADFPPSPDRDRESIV
The description is as above. Particulars: selectivity over Nav1.5. The experiment is classed as cell-based.
Text: as §1, §2

T1 sequence (Q15858 whole entry): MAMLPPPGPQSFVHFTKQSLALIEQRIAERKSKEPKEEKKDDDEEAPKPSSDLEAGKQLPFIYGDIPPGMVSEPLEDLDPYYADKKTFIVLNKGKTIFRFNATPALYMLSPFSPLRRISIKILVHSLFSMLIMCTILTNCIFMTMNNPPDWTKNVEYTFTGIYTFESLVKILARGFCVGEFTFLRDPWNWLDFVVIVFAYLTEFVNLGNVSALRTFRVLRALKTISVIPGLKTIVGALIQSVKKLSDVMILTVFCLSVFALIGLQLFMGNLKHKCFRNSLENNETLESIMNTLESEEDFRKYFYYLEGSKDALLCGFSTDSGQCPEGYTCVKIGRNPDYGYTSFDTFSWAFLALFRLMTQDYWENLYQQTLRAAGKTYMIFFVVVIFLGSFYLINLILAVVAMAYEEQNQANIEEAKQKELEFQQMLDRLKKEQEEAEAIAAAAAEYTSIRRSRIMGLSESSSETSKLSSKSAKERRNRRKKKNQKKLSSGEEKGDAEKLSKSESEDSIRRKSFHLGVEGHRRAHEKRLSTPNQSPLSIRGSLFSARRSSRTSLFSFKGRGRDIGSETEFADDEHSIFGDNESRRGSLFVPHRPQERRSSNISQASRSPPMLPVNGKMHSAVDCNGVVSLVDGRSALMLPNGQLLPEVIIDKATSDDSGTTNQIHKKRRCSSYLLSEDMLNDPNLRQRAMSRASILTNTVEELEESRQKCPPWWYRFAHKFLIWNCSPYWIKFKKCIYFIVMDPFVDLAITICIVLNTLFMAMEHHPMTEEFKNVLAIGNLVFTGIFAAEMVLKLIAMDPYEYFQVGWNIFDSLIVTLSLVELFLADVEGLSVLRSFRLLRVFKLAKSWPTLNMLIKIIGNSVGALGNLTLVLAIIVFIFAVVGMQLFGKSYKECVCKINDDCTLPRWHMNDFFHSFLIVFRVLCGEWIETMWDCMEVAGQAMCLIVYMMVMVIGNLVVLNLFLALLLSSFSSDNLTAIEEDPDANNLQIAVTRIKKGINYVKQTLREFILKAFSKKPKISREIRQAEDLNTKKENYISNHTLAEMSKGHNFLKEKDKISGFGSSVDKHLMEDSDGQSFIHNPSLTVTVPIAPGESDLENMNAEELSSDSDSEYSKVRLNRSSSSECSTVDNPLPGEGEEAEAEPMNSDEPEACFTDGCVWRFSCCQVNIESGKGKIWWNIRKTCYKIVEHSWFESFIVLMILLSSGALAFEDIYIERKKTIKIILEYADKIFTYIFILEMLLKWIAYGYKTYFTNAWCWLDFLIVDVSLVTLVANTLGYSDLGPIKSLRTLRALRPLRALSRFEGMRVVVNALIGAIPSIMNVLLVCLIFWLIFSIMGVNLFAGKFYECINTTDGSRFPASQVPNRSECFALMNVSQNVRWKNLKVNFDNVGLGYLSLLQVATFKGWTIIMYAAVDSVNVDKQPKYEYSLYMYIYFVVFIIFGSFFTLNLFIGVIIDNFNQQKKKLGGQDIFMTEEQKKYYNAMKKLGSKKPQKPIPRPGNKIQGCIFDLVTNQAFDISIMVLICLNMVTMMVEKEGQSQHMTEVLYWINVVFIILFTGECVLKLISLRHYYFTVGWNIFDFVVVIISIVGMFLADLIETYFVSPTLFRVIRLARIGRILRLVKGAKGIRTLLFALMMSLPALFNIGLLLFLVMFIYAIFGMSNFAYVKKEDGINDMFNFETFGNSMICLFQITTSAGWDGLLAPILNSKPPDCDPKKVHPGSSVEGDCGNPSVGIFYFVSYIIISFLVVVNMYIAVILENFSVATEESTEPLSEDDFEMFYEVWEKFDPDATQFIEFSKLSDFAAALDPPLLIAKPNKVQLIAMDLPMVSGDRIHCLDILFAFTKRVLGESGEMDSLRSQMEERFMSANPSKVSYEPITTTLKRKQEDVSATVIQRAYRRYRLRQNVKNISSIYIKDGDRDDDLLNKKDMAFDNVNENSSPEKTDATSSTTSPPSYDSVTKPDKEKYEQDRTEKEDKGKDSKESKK

On to `NC1CCc2cccc(Cn3c(=O)oc4cc(S(=O)(=O)Nc5ncns5)ccc43)c2C1` (single isomer, unassigned) [Compound 23-14, (S or R)-3-[(7-amino-5,6,7,8-tetrahydronaphthalen-1-yl)methyl]-2-oxo-N-1,2,4-thiadiazol-5-yl-2,3-dihydro-1,3-benzoxazole-6-sulfonamide], for which the IC50 in experiment [1] is 75 nM. Also, the “ratio of Nav 1.5:Nav 1.7 potency, determined by PatchXpress measurement” value (from here on “ratio of Nav 1.5:Nav 1.7 potency”) in experiment [2] was found to be 393.

`C[C@H](c1cccc2c1CC(N)CC2)n1c(=O)oc2cc(S(=O)(=O)Nc3ncns3)c(F)cc21` (single isomer, unassigned) [Compound 23-25, (R or S)-3-[(1R)-1-(7-amino-5,6,7,8-tetrahydronaphthalen-1-yl)ethyl]-5-fluoro-2-oxo-N-1,2,4-thiadiazol-5-yl-2,3-dihydro-1,3-benzoxazole-6-sulfonamide]: the IC50 in experiment [1] was determined as 15 nM. Further, in experiment [2], the “ratio of Nav 1.5:Nav 1.7 potency” value was found to be 203.

Turning to `NC1CCc2cccc(Cn3c(=O)oc4cc(S(=O)(=O)Nc5ncns5)c(F)cc43)c2C1` (single isomer, unassigned) [Compound 23-27, (S or R)-3-[(7-amino-5,6,7,8-tetrahydronaphthalen-1-yl)methyl]-5-fluoro-2-oxo-N-1,2,4-thiadiazol-5-yl-2,3-dihydro-1,3-benzoxazole-6-sulfonamide], the IC50 in experiment [1] is 6 nM. In experiment [2], the “ratio of Nav 1.5:Nav 1.7 potency” value was determined as 29.

For `O=c1oc2cc(S(=O)(=O)Nc3nccs3)c(F)cc2n1Cc1cccc2c1CNCC2F` (single isomer, unassigned) [Compound 43-27, (R or S)-5-fluoro-3-[(4-fluoro-1,2,3,4-tetrahydroisoquinolin-8-yl)methyl]-2-oxo-N-1,3-thiazol-2-yl-2,3-dihydro-1,3-benzoxazole-6-sulfonamide], the IC50 in experiment [1] was determined as 106 nM. Moreover, the “ratio of Nav 1.5:Nav 1.7 potency” value in experiment [2] is 282.

Take `O=c1oc2cc(S(=O)(=O)Nc3nccs3)c(F)cc2n1Cc1cccc2c1CNCC2F` (single isomer, unassigned) [Compound 43-28, (S or R)-5-fluoro-3-[(4-fluoro-1,2,3,4-tetrahydroisoquinolin-8-yl)methyl]-2-oxo-N-1,3-thiazol-2-yl-2,3-dihydro-1,3-benzoxazole-6-sulfonamide]: the IC50 in experiment [1] was determined as 120 nM. Further, the “ratio of Nav 1.5:Nav 1.7 potency” value in experiment [2] worked out at 684.

For `O=c1oc2cc(S(=O)(=O)Nc3ncns3)c(F)cc2n1Cc1ccccc1` [Compound 11-7, 3-benzyl-5-fluoro-2-oxo-N-1,2,4-thiadiazol-5-yl-2,3-dihydro-1,3-benzoxazole-6-sulfonamide], the IC50 in experiment [1] came out at 545 nM. Further, in experiment [2], the “ratio of Nav 1.5:Nav 1.7 potency” value stood at 55.

In the case of `O=c1oc2cc(S(=O)(=O)Nc3ncns3)c(F)cc2n1C[C@H]1C[C@@H]1I` [Compound 11-9, 5-fluoro-3-{[(1R,2S)-2-iodocyclopropyl]methyl}-2-oxo-N-1,2,4-thiadiazol-5-yl-2,3-dihydro-1,3-benzoxazole-6-sulfonamide], in experiment [1], the IC50 was 301 nM. Further, the “ratio of Nav 1.5:Nav 1.7 potency” value in experiment [2] is given as 56.

On to `O=c1oc2cc(S(=O)(=O)Nc3ncns3)c(F)cc2n1CC1CC1c1ccccc1` (stereo not drawn) [Compound 11-10, 5-fluoro-2-oxo-3-[(2-phenylcyclopropyl)methyl]-N-1,2,4-thiadiazol-5-yl-2,3-dihydro-1,3-benzoxazole-6-sulfonamide], for which the IC50 in experiment [1] came out at 44 nM. Moreover, the “ratio of Nav 1.5:Nav 1.7 potency” value in experiment [2] came to 123.

Turning to `Cn1cc2cccc(Cn3c(=O)oc4cc(S(=O)(=O)Nc5ncns5)c(F)cc43)c2n1` [Compound 11-11, 5-fluoro-3-[(2-methyl-2H-indazol-7-yl)methyl]-2-oxo-N-1,2,4-thiadiazol-5-yl-2,3-dihydro-1,3-benzoxazole-6-sulfonamide], the IC50 in experiment [1] came out at 490 nM. Further, the “ratio of Nav 1.5:Nav 1.7 potency” value in experiment [2] came to 81.
